The structures appear in SMILES notation.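 Grown in 96-well plates, cells were treated for 48 hours with each compound at five concentrations. Insufficient inhibition: endpoint recorded as highest concentration tested. Definition used: TGI = concentration required for complete inhibition of growth.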

One test concerns OVCAR-3 ovarian. As to the kind of experiment: inhibition of tumour cell growth, NCI panel, 48 h.
As for `CCC1C2C=CC(CC2)N1S(=O)(=O)c1ccc(C)cc1` (centres undefined), the TGI is above 100 µM.

Consider `O=C(N/N=C1/C(=O)N(c2ccc(Cl)cc2Cl)C(=O)C(=O)C1c1nc2ccccc2o1)c1ccccc1O` (centres undefined), for which the TGI turned out to be 52.4 µM.

On to `CC(=O)O[C@H]1CCC2[C@@H]3CCC4=C(O)c5nocc5C[C@]4(C)C3CC[C@@]21C` (some centres undefined), for which the TGI is above 100 µM.

Molecule `O=C1[C@@H]2C3c4ccccc4C([C@@H]2C(=O)N1c1ccccc1)S3(=O)=O` returned a TGI above 100 µM.

As for `CCOc1ccc2c(c1)[n+]([O-])c(-c1ccccc1Cl)c(N)[n+]2[O-]`, the TGI was above 100 µM.

Another test has as its system EKVX NSCLC. Put plainly: inhibition of tumour cell growth, NCI panel, 48 h.
In the case of `c1ccc(SC2CCSc3ccccc3C2Sc2ccccc2)cc1` (centres undefined), the TGI was above 100 µM.

`O=C(Nc1cc(Cl)ccc1Cl)c1cc2cccc(Cl)c2oc1=O` showed a TGI above 100 µM.

`Cc1ccc(Cn2c(C)nc3c2C(=O)c2ccccc2C3=O)cc1` yielded a TGI above 100 µM.

`CCOC(=O)C(C)(C)Oc1ccc2c(C)c(-c3ccc(Cl)cc3)c(=O)oc2c1` yielded a TGI above 100 µM.

`COc1ccc(NC(=O)/C(N=O)=C(/C)O)cc1`: the TGI was above 100 µM.

Molecule `O=C1NC(=S)NNC12c1ccccc1-c1ccccc12` yielded a TGI above 10 µM.

`O=C(NC(=O)c1cn(CCNCCO)c(=O)[nH]c1=O)OCc1ccccc1`: the TGI was above 100 µM.

On to `CCC1C2C=CC(CC2)N1S(=O)(=O)c1ccc(C)cc1` (centres undefined), for which the TGI is above 100 µM.

With `O=C(N/N=C1/C(=O)N(c2ccc(Cl)cc2Cl)C(=O)C(=O)C1c1nc2ccccc2o1)c1ccccc1O` (centres undefined), the TGI was above 100 µM.

`CC(=O)O[C@H]1CCC2[C@@H]3CCC4=C(O)c5nocc5C[C@]4(C)C3CC[C@@]21C` (some centres undefined) came in with a TGI above 100 µM.

Molecule `O=C1[C@@H]2C3c4ccccc4C([C@@H]2C(=O)N1c1ccccc1)S3(=O)=O` gave a TGI above 100 µM.

Consider `CCOc1ccc2c(c1)[n+]([O-])c(-c1ccccc1Cl)c(N)[n+]2[O-]`, for which the TGI is above 100 µM.

Another test concerns SK-OV-3 ovarian. Put plainly: inhibition of tumour cell growth, NCI panel, 48 h.
Consider `COC(=O)[C@]1(C)CCCC2(C)C1CC[C@H]1C=C(C)[C@H]3CCC12C3` (some centres undefined), for which the TGI was above 100 µM.

As for `O=C(Nc1cc(Cl)ccc1Cl)c1cc2cccc(Cl)c2oc1=O`, the TGI is above 100 µM.

As to `Cc1ccc(Cn2c(C)nc3c2C(=O)c2ccccc2C3=O)cc1`, the TGI was 45.6 µM.

Molecule `COc1ccc(NC(=O)/C(N=O)=C(/C)O)cc1` had a TGI above 100 µM.

Turning to `O=C1NC(=S)NNC12c1ccccc1-c1ccccc12`, the TGI was above 10 µM.

Consider `O=C(NC(=O)c1cn(CCNCCO)c(=O)[nH]c1=O)OCc1ccccc1`, for which the TGI is above 100 µM.

`CCC1C2C=CC(CC2)N1S(=O)(=O)c1ccc(C)cc1` (centres undefined) showed a TGI of 89.6 µM.

In turn, `O=C(N/N=C1/C(=O)N(c2ccc(Cl)cc2Cl)C(=O)C(=O)C1c1nc2ccccc2o1)c1ccccc1O` (centres undefined) returned a TGI above 100 µM.

In the case of `CC(=O)O[C@H]1CCC2[C@@H]3CCC4=C(O)c5nocc5C[C@]4(C)C3CC[C@@]21C` (some centres undefined), the TGI is above 100 µM.

In turn, `O=C1[C@@H]2C3c4ccccc4C([C@@H]2C(=O)N1c1ccccc1)S3(=O)=O` registered a TGI above 100 µM.

In turn, `O=C(O)[C@H](NS(=O)(=O)c1ccc2ccccc2c1)c1ccccc1` returned a TGI above 100 µM.

For the molecule `CCOc1ccc2c(c1)[n+]([O-])c(-c1ccccc1Cl)c(N)[n+]2[O-]`, the TGI was above 100 µM.

A further test concerns OVCAR-5 ovarian. Put plainly: inhibition of tumour cell growth, NCI panel, 48 h.
The molecule `COC(=O)[C@]1(C)CCCC2(C)C1CC[C@H]1C=C(C)[C@H]3CCC12C3` (some centres undefined) returned a TGI above 100 µM.

As for `COc1ccc(NC(=O)/C(N=O)=C(/C)O)cc1`, the TGI was above 100 µM.

Molecule `O=C(NC(=O)c1cn(CCNCCO)c(=O)[nH]c1=O)OCc1ccccc1` came in with a TGI above 100 µM.

For the molecule `CCC1C2C=CC(CC2)N1S(=O)(=O)c1ccc(C)cc1` (centres undefined), the TGI was determined as 79 µM.

As for `O=C(N/N=C1/C(=O)N(c2ccc(Cl)cc2Cl)C(=O)C(=O)C1c1nc2ccccc2o1)c1ccccc1O` (centres undefined), the TGI was above 100 µM.

For `CC(=O)O[C@H]1CCC2[C@@H]3CCC4=C(O)c5nocc5C[C@]4(C)C3CC[C@@]21C` (some centres undefined), the TGI is above 100 µM.

Turning to `O=C1[C@@H]2C3c4ccccc4C([C@@H]2C(=O)N1c1ccccc1)S3(=O)=O`, the TGI is above 100 µM.

In turn, `O=C(O)[C@H](NS(=O)(=O)c1ccc2ccccc2c1)c1ccccc1` displayed a TGI above 100 µM.

As for `CCOc1ccc2c(c1)[n+]([O-])c(-c1ccccc1Cl)c(N)[n+]2[O-]`, the TGI was above 100 µM.

The next test has as its system TK-10 renal. Put plainly: inhibition of tumour cell growth, NCI panel, 48 h.
On to `c1ccc(SC2CCSc3ccccc3C2Sc2ccccc2)cc1` (centres undefined), for which the TGI was above 100 µM.

For the molecule `COC(=O)[C@]1(C)CCCC2(C)C1CC[C@H]1C=C(C)[C@H]3CCC12C3` (some centres undefined), the TGI is above 100 µM.

`O=C(Nc1cc(Cl)ccc1Cl)c1cc2cccc(Cl)c2oc1=O`: the TGI was above 100 µM.

The molecule `Cc1ccc(Cn2c(C)nc3c2C(=O)c2ccccc2C3=O)cc1` had a TGI of 80.8 µM.

The molecule `CCOC(=O)C(C)(C)Oc1ccc2c(C)c(-c3ccc(Cl)cc3)c(=O)oc2c1` displayed a TGI above 100 µM.

On to `COc1ccc(NC(=O)/C(N=O)=C(/C)O)cc1`, for which the TGI is above 100 µM.

Consider `O=C1NC(=S)NNC12c1ccccc1-c1ccccc12`, for which the TGI is above 10 µM.

Molecule `O=C(NC(=O)c1cn(CCNCCO)c(=O)[nH]c1=O)OCc1ccccc1` registered a TGI above 100 µM.

In turn, `O=C(N/N=C1/C(=O)N(c2ccc(Cl)cc2Cl)C(=O)C(=O)C1c1nc2ccccc2o1)c1ccccc1O` (centres undefined) had a TGI above 100 µM.

In the case of `CC(=O)O[C@H]1CCC2[C@@H]3CCC4=C(O)c5nocc5C[C@]4(C)C3CC[C@@]21C` (some centres undefined), the TGI was above 100 µM.

As for `O=C1[C@@H]2C3c4ccccc4C([C@@H]2C(=O)N1c1ccccc1)S3(=O)=O`, the TGI is above 100 µM.
